These results are taken from US20090092662A1, “LIPOSOME FORMULATIONS OF BORONIC ACID COMPOUNDS” (priority 2007, published 2009).

Read-outs that look alike come from different tables or passages of the source.

Series [1] can be described thus: ITC drug binding study of complexing reagents to bortezomib. The conditions noted are these: pH 9.5, 100 mM glycine, 30° C., bortezomib titrated into complexing reagent. How it is done: The binding of the various complexing reagents to bortazomib were investigated by isothermal titration calorimetry (VP-ITC, MicroCal, Northampton, Mass.) under controlled parameters. […] The pH level was checked twice and adjustments were made as necessary to within 0.2 units. The solutions were degassed for 10-15 min. […] The experiments were conducted at 30° C. […] Data processing to generate the binding parameters was performed using the software program provided by the ITC manufacture (Microcal origin v5.0).

The subject of series [2] is human prostate cancer xenograft. The following applies: human prostate xenograft model; cited from earlier work.
For series [3] the following is noted: cited from earlier work.
The test system of a further series is lung cancer xenograft. The following applies: lung cancer xenograft model; cited from earlier work.
In another series the test system is tumor lines. The following applies: range of tumor lines, NCI in vitro screen; cited from earlier work.

As to `OCC(O)CNCC(O)C(O)C(OC1OC(CO)C(O)C(O)C1O)C(O)CO` (stereo not drawn) [Example 5], the K in series [1] worked out at 2366 mol⁻¹.
On to `CC(C)C[C@H](NC(=O)[C@H](Cc1ccccc1)NC(=O)c1cnccn1)B(O)O` [bortezomib], for which the antitumor activity result (in series [2]; in the series on lung cancer xenograft) was “had antitumor activity” each time. For the same compound, the maximum tolerated dose in series [3] (intravenous bolus on days 1, 4, 8, and 11 of a 3-week cycle) is given as 1.56 mg/m^2; in series [3] (intravenously once or twice weekly, patients with solid tumors), 1.3 mg/m^2. Also, in the series on tumor lines, the cytotoxicity entry was “showed cytotoxicity against a range of tumor lines”.
